# Read-outs that look alike come from different tables or passages of the source. Bridge positions count the residues as written; N and C are the ends. Square brackets hold non-standard residues; d marks the D form. Peptide text beside a SMILES is read from it. * marks the point of attachment. Ileψ(thiazoline)Cys = CC[C@H](C)[C@H](N)C1=N[C@H](C(=O)*)CS1; dOrn = NCCC[C@@H](N)C(=O)O; X1 = CC[C@H](C)CCCCC(=O)*; Dab = NCC[C@H](N)C(=O)O
# Assays:
# [1] = test system: C. pseudotuberculosis ΔlysX
# [2] = test system: C. pseudotuberculosis ΔalaDAGS
Molecule,MIC ΔlysX ([1]; 24 h) [µg/mL],MIC ΔalaDAGS ([2]; 24 h) [µg/mL],MIC ΔlysX [1] [µg/mL],wt/ΔlysX (fold-change) [1] [fold-change],MIC ΔalaDAGS [2] [µg/mL],protective advantage conferred by lysX [1]
CC[C@H](C)CCCCC(=O)N[C@@H](CCN)C(=O)N[C@H](C(=O)N[C@@H](CCN)C(=O)N[C@H]1CCNC(=O)[C@H]([C@@H](C)O)NC(=O)[C@H](CCN)NC(=O)[C@H](CCN)NC(=O)[C@H](CC(C)C)NC(=O)[C@@H](Cc2ccccc2)NC(=O)[C@H](CCN)NC1=O)[C@@H](C)O [Polymyxin B] (X1-[Dab]T[Dab][Dab][Dab][dF]L[Dab][Dab]T; lactam 4-C (inferred); N-terminus assumed),10,640,,,,
CCCNC[C@]1(O)[C@H](C)O[C@@H](O[C@H]2[C@H](C)[C@@H](O[C@@H]3O[C@H](C)C[C@H](N(C)C)[C@H]3O)[C@](C)(O)C[C@@H](C)CN[C@H](C)[C@@H](O)[C@](C)(O)[C@@H](CC)OC(=O)[C@@H]2C)C[C@@]1(C)OC [Tulathromycin],,,1.25,2,2.5,
CN[C@H](CC(C)C)C(=O)N[C@H]1C(=O)N[C@@H](CC(N)=O)C(=O)N[C@H]2C(=O)N[C@H]3C(=O)N[C@H](C(=O)N[C@H](C(=O)O)c4cc(O)cc(O)c4-c4cc3ccc4O)[C@H](O)c3ccc(c(Cl)c3)Oc3cc2cc(c3O[C@@H]2O[C@H](CO)[C@@H](O)[C@H](O)[C@H]2O[C@H]2C[C@](C)(N)[C@H](O)[C@H](C)O2)Oc2ccc(cc2Cl)[C@H]1O [Vancomycin],0.375,0.75,,2,,
CO/N=C(\C(=O)N[C@@H]1C(=O)N2C(C(=O)O)=C(CSc3nc(=O)c(=O)[nH]n3C)CS[C@H]12)c1csc(N)n1 [Ceftriaxone],,,,,,no protective advantage
CC[C@H](C)[C@H](N)C1=N[C@H](C(=O)N[C@@H](CC(C)C)C(=O)N[C@H](CCC(=O)O)C(=O)N[C@H](C(=O)N[C@H]2CCCCNC(=O)[C@H](CC(N)=O)NC(=O)[C@@H](CC(=O)O)NC(=O)[C@H](Cc3cnc[nH]3)NC(=O)[C@@H](Cc3ccccc3)NC(=O)[C@H]([C@@H](C)CC)NC(=O)[C@@H](CCCN)NC2=O)[C@@H](C)CC)CS1 [Bacitracin] ({Ileψ(thiazoline)Cys}-L[dE]IK[dOrn]I[dF]H[dD]N; lactam 4-C (inferred); N-terminus assumed),3.2,6.4,,2,,
CNC(C)C1CCC(N)C(OC2C(N)CC(N)C(OC3OCC(C)(O)C(NC)C3O)C2O)O1 (stereo not shown) [Gentamicin],,,0.078,,,
Nisin,,,2.5,32,80,
NC[C@H]1O[C@H](O[C@H]2[C@H](O)[C@@H](O[C@H]3O[C@H](CO)[C@@H](O)[C@H](N)[C@H]3O)[C@H](N)C[C@@H]2N)[C@H](O)[C@@H](O)[C@@H]1O [Kanamycin],,,1.25,8,10,
CC[C@H](C)[C@H](NC(=O)CN)C(=O)NCC(=O)N[C@@H](C)C(=O)N[C@H](C(=O)N[C@@H](CC(C)C)C(=O)N[C@@H](CCCCN)C(=O)N[C@H](C(=O)N[C@@H](CC(C)C)C(=O)N[C@H](C(=O)N[C@H](C(=O)NCC(=O)N[C@@H](CC(C)C)C(=O)N1CCC[C@H]1C(=O)N[C@@H](C)C(=O)N[C@@H](CC(C)C)C(=O)N[C@H](C(=O)N[C@@H](CO)C(=O)N[C@@H](Cc1c[nH]c2ccccc12)C(=O)N[C@H](C(=O)N[C@@H](CCCCN)C(=O)N[C@@H](CCCNC(=N)N)C(=O)N[C@@H](CCCCN)C(=O)N[C@@H](CCCNC(=N)N)C(=O)N[C@@H](CCC(N)=O)C(=O)N[C@@H](CCC(N)=O)C(N)=O)[C@@H](C)CC)[C@@H](C)CC)[C@@H](C)O)[C@@H](C)O)C(C)C)C(C)C [Melittin],10,>40,,>4,,

# Reference: paper PMC10580965 (Microbiology Spectrum, 2023)
